What was measured:
[1] = tested on: BS2-driven reporter plasmid; experiment: Transactivation of BS2-driven luciferase reporter in 293T cells; type: cell-based, human; conditions: 1 μg BS2-driven reporter
Source text: An XbaI-EcoRV fragment containing the entire DMP1 coding sequence is subcloned by blunt end ligation into a SpeI-XbaI fragment of the Rc/RSV vector (Invitrogen, La Jolla Calif.) to enable DMP1 expression in mammalian cells. 6×concatamerized BS1, 8×concatamerized, BS2, or 7×concatamerized M3 oligonucleotides (FIG. 5B) are inserted into the XhoI-SmaI sites of pGL2 (Pfornega) 5′ to a minimal simian virus 40 (SV40) early promoter driving firefly luciferase gene expression. The latter “reporter” plasmid (1 μg) together with increasing amounts of pRc/RSV-DMP1 expression plasmid compensated by decreasing quantities of control pRc/RSV DNA (total of both=2.5 μg) were transfected into 293T cells (1.5×10^6 cells per 60 mm diameter culture dish) by calcium phosphate precipitation (7). Two days later, cells were harvested, washed three times with PBS, and lysed in 1 ml of 25 mM glycylglycine (Sigma), pH 7.8, 15 mM MgSO4, 4 mM EDTA, 1 mM DTT, and 1% Triton X-100. After clearing by centrifugation, 50 μl aliquots were assayed diluted to 350 μl using 15 mM potassium phosphate buffer, pH 7.8, containing 15 mM MgSO4, 4 mM EGTA, 2 mM ATP, 1 mM DTT, and 67 uM luciferin (Sigma). Total light emission was measured for duplicate samples during the initial 20 seconds after luciferin injection with an Optocomp I luminometer (MGM Instruments, Hamden Conn.). […]

[2] = tested on: p19ARF; experiment: Induction of endogenous p19ARF protein in retrovirus-infected MEFs; type: cell-based, mouse
Method: Virus production and infection. Human kidney 293T cells were transfected with a helper ecotropic retrovirus plasmid defective in psi-2 packaging sequences, together with pSRα vectors containing murine DMP1, human c-Myc, human E2F-1, or human Ets1 cDNAs [Zindy, et al., Genes Dev. 12:2424-2433 (1998); Inoue and Sherr, J. Biol. Chem. 273:29188-29194 (1998)]. Viruses were harvested every 6 hours 24-72 hours after transfection, filtered and stored at 4° C. until used for infection [Zindy, et al., Genes Dev. 12:2424-2433 (1998)]. In order to construct a retroviral vector containing DMP1 linked to a mutated tamoxifen-responsive element of the estrogen receptor (DMP1-ER™), a 3′ 0.3 kb EcoNI DNA fragment of murine DMP1 cDNA was amplified by PCR using
RNA and protein expression. Quantitative RT-PCRs employed specific primers for murine ARF exon 1β (30 cycles) and for β-actin (20 cycles) used as a control [Zindy et al., Oncogene 15:203-211 (1997)]. […]
(§1) Based on the above observations, it was determined as to whether introduction of DMP1 would induce synthesis of the endogenous ARF protein in normal diploid fibroblast strains. […] Although the blot was normalized for protein input, the levels of p19^ARF induced by DMP1 were calculated to be 2-fold higher than those induced by Myc, because fewer cells were productively infected with the DMP1 virus in this experiment (see FIG. 15A).

[3] = tested on: wild-type MEFs; experiment: BrdU incorporation / cell cycle arrest in wild-type MEFs; type: cell-based, mouse; conditions: retroviral infection
Method: BrdU incorporation and immunofluorescence. Wild-type or ARF-null MEFs (4×10^4 cells) were seeded on gelatin-coated coverslips 16 hours before virus infection. Cells were infected three times with empty vector, or vectors expressing murine DMP1, human c-Myc, human E2F-1, or human Ets1. Cells were labeled 36 hours after virus infection with bromodeoxyuridine (BrdU, Sigma) for 14 hours in complete medium. For pulse labeling, MEFs were treated with 2 μM4-HT for 36 hours and labeled with BrdU for three hours at different intervals throughout the inductive phase. Cells were fixed in ice-cold methanol-acetone (1:1) for 10 min at −20° C. and then were stained with affinity-purified antibodies to DMP1 (AF) [Hirai and Sherr, Mol. Cell. […]
as §1

## DMP1: murine cyclin D-associated myb-like transcription factor, 761 amino acids, SEQ ID NO:1
[1]
  transactivation of luciferase activity relative to reporter plasmid alone: ~20 fold
[2]; corrected for fraction of productively infected cells
  levels of p19ARF induced relative to those induced by Myc: 2 fold
[2]; early passage MEFs, retroviral infection
  ARF protein synthesis: induced ARF protein synthesis
[3]
  cell cycle arrest: underwent cell cycle arrest

From patent publication US6673902B2, “Cyclin D binding factor, and uses thereof” (St. Jude Children's Research Hospital, priority 1996, dated 2004)
